From patent US8932626B2, “Felbinac-containing transdermally absorbable preparation” (Teikoku Seiyaku Co., Ltd., priority 2009, dated 2015)

What was measured:
[1] = background art statement; cited from earlier work
[2] = In vitro rat skin permeability test (Test Example 1)
Description: The rat abdominal skin was exfoliated, the dermis side of the skin was directed to a side of a receptor layer, and its inside was filled with phosphate buffered saline. Water kept at 37° C. was circulated in a water jacket.

In the case of `O=C(O)Cc1ccc(-c2ccccc2)cc1` [Felbinac], the “solubility in various solvents” value [1] is given as “very low”.

For `CC(C(=O)O)c1cccc(C(=O)c2ccccc2)c1` (stereo not drawn) [ketoprofen], the “releasing of ketoprofen (permeated amount through excised rat skin)” value ([2]; Comparative Study (2), FIG. 3, patch with ketoprofen and lidocaine (Comparative Example 4) versus only ketoprofen (Comparative Example 3)) was “inhibited significantly” and the “releasing effect of the anti-inflammatory analgesic obtained by formulating lidocaine” value ([2]; summary of Comparative Studies (1) to (3)) was “not observed”.
